Data set [1] deals with LPS-induced TNFα production in rat splenocytes. The data set is described as follows: LPS-induced TNFα production in rat mononuclear spleen cells (rTNFα splenocytes). The class given is cell-based. The conditions noted are these: Splenocyte, LPS-stimulated TNFα release, rat splenocytes, average (SD); for Emax: read-out: rTNFα splenocytes Intrinsic activity. As for the experimental part: (§1) • Human A2a and A2b receptor pharmacology: Chinese hamster ovary CHO-K1 cells stably expressing human A2a and A2b receptors were used to determine substances agonistic potency and intrinsic activity. […] The signal corresponding to adenosine at 100 μmol/L was used to define 100% intrinsic activity. • Human A3 receptor pharmacology: A3 receptor Gi coupling was measured by GTPγ ^35[S] filter assay at serial dilutions of compound using membranes from Perkin-Elmer. The signal corresponding to the maximal response of NECA at 100 μmol/L was set to 100% intrinsic activity. • Lipopolysaccharide (LPS)-induced TNFα production in primary human peripheral blood mononuclear cells (hTNFα PBMC) and rat mononuclears (rTNFα splenocytes): Human PBMC and rat mononuclear spleen cells were incubated with serial dilutions of compound and stimulated with LPS.
Procedures and assays were run in R10 buffer (RPMI 1640 Medium supplemented with GlutaMAX™ and HEPES (GIBCO-BRL), 10% fetal calf serum, penicillin and streptomycin (each 5000IU/ml)). Human PBMC were purified from heparinised blood by Ficoll separation (Ficoll, Amersham Pharmacia Biotech AB, Cat: 17-1440-03, Lot: 312170) and rat mononuclear cells were collected after rat spleen perfusion. Both cell preparations were followed by hypotonic lysis of residual erythrocytes. Serial dilutions of compounds were pre-incubated with 200 000 cells/well (96-well plate) for 45min in 37 °C (190µl). Cells were stimulated by 10µl LPS (final concentration 0.5ng/ml human and 150ng/ml rat; SIGMA Cat: L-4516, Lot: 104K4036) for 18h at 37 °C. TNFα release was measured by ELISA (^TmR&D Systems plates) according to the manufacturer’s instructions in cell free supernatant.

Data set [2] can be described thus: Plasma protein binding by equilibrium dialysis. It is filed as in vitro ADME. The conditions noted are these: male, Wistar, pH 7.4, rat plasma, 10 μmol/L, read-out: fu rat (free unbound drug in plasma). As to the method:
as §1
The plasma protein binding was determined in plasma from male Wistar rats at a compound concentration of 10μM by equilibrium dialysis against a phosphate buffer at pH 7.4 using a semi-permeable membrane with a molecular cut-off of 6-8KDa (Spectra/Por, Spectrum Laboratories Inc, US). The compounds were dialyzed for 18h at 37±1°C in an air incubator on an orbital shaker. The samples were analysed using LC-MS/MS.

A short description of data set [3]: Lipophilicity (LogD), shake flask. The settings on record: 1-octanol / phosphate buffer, octanol-water, phosphate buffer pH 7.4. It is filed as physicochemical. As for the experimental part: as §1
The octanol-water partition coefficient (LogD) was measured using the shake flask method. 600µL of 1-octanol was added to a vial with 6µL of 10mM DMSO-solution of the test compound. 600µL of 10mM sodium phosphate buffer adjusted to pH 7.4 was added and equilibrium was performed by vigorous shaking for ten minutes with an Eppendorf mixer. The phases were separated by centrifugation. The samples were analysed by HPLC with UV-detection at 254nm.

Data set [4] can be described thus: Substance solubility in phosphate buffer. The settings on record: aqueous buffer, thermodynamic from solid; phosphate buffer pH 7.4, dry compound in solid state. The class given is physicochemical. As for the experimental part: as §1
Solubility was measured in phosphate buffer at pH 7.4 using dry compounds in solid state.

The nature of data set [5]: In vivo pharmacokinetics in rats (i.v., oral, intratracheal). The settings on record: for Rat blood clearance: i.v.; for half-life: lung, inhaled or intranasal, intratracheal dosing, n = 2/time point, read-out: Lung t½ (terminal half-life in lung) (converted); for Kp at 24 h: other: intratracheal (i.t.), i.t., ratio of lung concentration 24 h after dose to blood Cmax after same dose, read-out: Lung/blood split. As to the method:
Rat PK was determined after an i.v. dose of 0.1μmol/kg (approximately 50μg/kg, 1ml/kg, TEG:H2O 50:50) given via a catheter in vena jugularis. The PK after oral administration was performed at a dose of 6μmol/kg (approximately 3mg/kg, 4ml/kg, 0.5% HPMC) given by gavage. Intratracheal PK was determined at 0.03 to 0.6μmol/kg (17 to 300μg/kg, 1ml/kg, in a vehicle containing sodium chloride (8.5mg/ml), EDTA (0.1mg/ml), citric acid (0.15mg/ml), sodium citrate (0.5mg/ml) and polysorbate 80 (0.2mg/mL) in purified water). The i.t. dose was given to anaesthetized (isofluran) rats, positioned at approximately 30° angle (head up) and the compound was administered in the trachea using a modified metal cannula. Rats were put back in their cages while regaining consciousness. Serial blood sampling of 100 to 200µl was performed after i.v. and p.o. dosing at pre-defined timepoints. Blood was mixed 1:4 with purified water containing heparin (10 to 30U/ml) in order to haemolyse the blood cells, and then placed in a 96-well plate and stored at –70°C until analysed. The dilution factor was accounted for in the data analysis. After i.t. dosing, animals were euthanized with isoflurane or pentobarbital at defined timepoints after dosing, blood samples taken from the vena jugularis or arteria carotis, handled and stored as described above. The rats were bled to drain as much blood as possible from the lungs. The lungs including the trachea were carefully dissected out with all non-relevant tissue removed, placed in pre-weighed vials and weighed. The lung vials were stored at –70°C until analyzed.
Lung tissue was frozen in liquid nitrogen and homogenised using a CryoPrep pneumatic hammer. The homogenisation of the tissue and the extraction of the compound were done in 4ml Ringer solution with an Adaptive Focused Acoustic Instrument. 50µl of the supernatant was transferred to a 96-well plate. All lung, blood and plasma samples were analysed by LC-MS/MS using a selective and sensitive method. Peak areas were used in comparison to those produced by the standard curve to determine parent compound concentrations. Homogenate concentrations were adjusted to account for the sample dilutions to give tissue concentrations.

In another data set the target is A2a (Homo sapiens, UniProt P29274). The experiment in a line: Human A2a receptor pharmacology: cAMP Alphascreen in CHO-K1 cells. The class given is cell-based. On the set-up: expressed in transfected cells; host or cells: CHO-K1. The conditions noted are these: average (SD); for Emax: CHO-K1, 100% = 10 μmol/L NECA, read-out: A2a human CHO-K1 cells Intrinsic activity; for EC50: cAMP generation. As for the experimental part: as §1
Chinese hamster ovary CHO-K1 cells stably expressing human A2a and A2b receptors were stored as 1ml aliquots at -150 °C in freezing medium, thawed immediately prior to assay. […] Cells (10000 cells/well) were incubated with test compounds prepared as serial dilutions. Potency (EC50) and efficacy (% of maximal response) were calculated from data fitted to a 4-parameter logistic function. The signal of 10µM NECA represented the maximal cAMP response (i.e. 100% of efficacy) produced by these cells.

Data set [6] relates to LPS-induced BAL neutrophils. The experiment in a line: LPS-induced lung inflammation model, neutrophils in BAL fluid. It is filed as in vivo, rat. The conditions noted are these: data not shown. As for the experimental part: The efficacy of the compound on neutrophils in BAL fluid is expressed as per cent inhibition of the full window (negative veh/veh controls vs. the positive veh/LPS controls): Inhibition (%) of LPS-induced BAL neutrophils by compound 2 was calculated using the following formula: [drawing 1] where A is the average in the group administered with vehicle and challenged with LPS; B is the average in the group administered with vehicle and challenged with saline; and C is the average in the group administered with test compound and challenged with LPS.
Animals in all efficacy studies were dosed intratracheally as described above in a buffered saline vehicle (pH 5) containing sodium chloride (8.5mg/ml), citric acid (0.28mg/ml) and sodium citrate (0.5mg/ml). The compound was dissolved in saline when given intravenously (0.9% NaCl) to the swivelled rats.
[…] Each rat was given LPS from the Pseudomona Aeruginosa bacteria (1µg/rat, 5µg/ml saline, Sigma-Aldrich, Sweden).
24 hours after the LPS challenge, rats were anaesthetized and exsanguinated via a cardiac incision. A tube was inserted and ligated to the trachea. The tube was connected to a syringe with 4ml PBS (without Ca^2+/Mg^2+) and a lavage of the whole lung was performed manually. The BAL fluid was collected individually in polyethylene tubes and kept on ice until further processed.
The BAL fluid was centrifuged and the supernatant separated from the cell pellet that was resuspended in 1.0ml of PBS. The total number of cells and cell differentia was counted in an automated cell counter and haematology analyzer (SYSMEX XT-1800iV, software for the rat BALF).

Data set [7] concerns allergen-challenged Brown Norway rats. More on the design: method as in Fozard et al. [2002]. The conditions noted are these: intratracheal; ref Fozard et al. [2002]; cited from earlier work.

Chain of A2a (P29274 whole entry): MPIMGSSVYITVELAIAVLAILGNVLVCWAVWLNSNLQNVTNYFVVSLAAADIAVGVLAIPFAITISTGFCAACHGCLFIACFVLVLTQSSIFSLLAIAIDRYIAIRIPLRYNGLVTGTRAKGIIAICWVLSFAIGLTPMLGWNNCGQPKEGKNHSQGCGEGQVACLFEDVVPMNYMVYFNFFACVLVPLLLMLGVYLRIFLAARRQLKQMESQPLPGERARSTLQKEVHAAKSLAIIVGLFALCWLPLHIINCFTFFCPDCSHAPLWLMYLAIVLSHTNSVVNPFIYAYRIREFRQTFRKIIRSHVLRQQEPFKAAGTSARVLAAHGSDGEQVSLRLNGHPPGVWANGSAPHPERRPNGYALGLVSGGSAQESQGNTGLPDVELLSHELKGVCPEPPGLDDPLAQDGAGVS

Regarding `CCNC(=O)[C@H]1O[C@@H](n2cnc3c(NC(CC)CC)nc(NCCNC(=O)Nc4ccncc4)nc32)[C@H](O)[C@@H]1O` [Compound 1, (2S,3S,4R,5R)-N-ethyl-5-[6-(1-ethylpropylamino)-2-[2-(4-pyridylcarbamoylamino)ethylamino]purin-9-yl]-3,4-dihydroxy-tetrahydrofuran-2-carboxamide], in data set [1], it took 3.2 nM to reach half-maximal inhibition (IC50) and the Emax turned out to be 53.4%. The fraction unbound at 18 h, 10 μM in data set [2] came out at 0.2. Also, the logD (commonly lipophilicity at a set pH, counting ionised and neutral species) at 10 min in data set [3] came out at 2. The solubility (in general, the dissolved amount per volume that the medium holds) in data set [4] is greater than 1000 µM. The Rat blood clearance in data set [5] (mean of n = 3) worked out at 65 mL/min per kg. For the same compound, in data set [5] (rat), the half-life (usually the time needed for the level to fall by half in the phase considered) was 6 h and the Kp at 24 h was 1.8. The bioavailability (usually the share of a dose that reaches the circulation, judged against a reference dose that is usually intravenous) in data set [5] (whole blood, 6 umol/kg, rat, oral, mean of n = 3, read-out: Rat oral F (bioavailability)) stood at 1.4%. At A2a, the Emax was 102% and the EC50 – broadly, the concentration at which the effect is half-maximal – is 2.4 nM.
Regarding `CCNC(=O)[C@H]1O[C@@H](n2cnc3c(N)nc(NCCc4ccc(CCC(=O)O)cc4)nc32)[C@H](O)[C@@H]1O` [CGS21680, 3-[4-[2-[[6-amino-9-[(2R,3R,4S,5S)-5-(ethylcarbamoyl)-3,4-dihydroxy-tetrahydrofuran-2-yl]purin-2-yl]amino]ethyl]phenyl]propanoic acid, reference compound], in data set [1], the IC50 – broadly, the midpoint of a concentration-inhibition curve – stood at 6.9 nM and the Emax came to 63.5%. Moreover, the fraction unbound at 18 h, 10 μM in data set [2] amounted to 0.17. Besides, the logD at 10 min in data set [3] is less than -1. This compound came in with a Rat blood clearance in data set [5] (mean of n = 3) of 26 mL/min per kg. In addition, in data set [5] (rat), the half-life is 1 h and the Kp at 24 h is less than 0.08. Also, the “Percentage of dose remaining in lung at 4 h” value in data set [5] (rat, single i.t. dose 300 μg/kg, 4 h) was “less than 1%”. Further, the “Pretreatment time at which maximal efficacy was seen” value in data set [6] was determined as 30 min. For the same compound, the “Effect on lung inflammation” value in data set [7] was “inhibited lung inflammation”.
As for `CCNC(=O)[C@H]1O[C@@H](n2cnc3c(NCC(c4ccccc4)c4ccccc4)nc(NCCNC(=O)Nc4cc[n+](C)cc4)nc32)[C@H](O)[C@@H]1O` [Compound 3, (2S,3S,4R,5R)-5-[6-(2,2-diphenylethylamino)-2-[2-[(1-methylpyridin-1-ium-4-yl)carbamoylamino]ethylamino]purin-9-yl]-N-ethyl-3,4-dihydroxy-tetrahydrofuran-2-carboxamide], in data set [1], half-maximal inhibition (IC50) required 0.2 nM and the Emax stood at 58%. Further, the fraction unbound at 18 h, 10 μM in data set [2] was 0.11. Moreover, the logD at 10 min in data set [3] is -0.35. Further, in data set [4], the solubility is 420 µM. In data set [5] (mean of n = 3), this compound had a Rat blood clearance of 42 mL/min per kg. Moreover, in data set [5] (rat), the half-life was 80 h and the Kp at 24 h stood at 1800. For the same compound, the “Percentage of dose remaining in lung at 24 h” value in data set [5] (rat, single i.t. dose (17 and 20 μmol/kg for compounds 2 and 3 as printed in Fig. 5), 24 h) was found to be 52%. In addition, at A2a, the Emax was determined as 96.2% and a half-maximal response (EC50) required 0.4 nM.

Values taken from PMC4492750, “The discovery of a selective and potent A2a agonist with extended lung retention” (Pharmacology Research & Perspectives, 2015).
